The target in assay [1] is T1, 5-hydroxytryptamine receptor 2C (Sus scrofa, UniProt K7GSR7).
T1 sequence (K7GSR7 whole entry): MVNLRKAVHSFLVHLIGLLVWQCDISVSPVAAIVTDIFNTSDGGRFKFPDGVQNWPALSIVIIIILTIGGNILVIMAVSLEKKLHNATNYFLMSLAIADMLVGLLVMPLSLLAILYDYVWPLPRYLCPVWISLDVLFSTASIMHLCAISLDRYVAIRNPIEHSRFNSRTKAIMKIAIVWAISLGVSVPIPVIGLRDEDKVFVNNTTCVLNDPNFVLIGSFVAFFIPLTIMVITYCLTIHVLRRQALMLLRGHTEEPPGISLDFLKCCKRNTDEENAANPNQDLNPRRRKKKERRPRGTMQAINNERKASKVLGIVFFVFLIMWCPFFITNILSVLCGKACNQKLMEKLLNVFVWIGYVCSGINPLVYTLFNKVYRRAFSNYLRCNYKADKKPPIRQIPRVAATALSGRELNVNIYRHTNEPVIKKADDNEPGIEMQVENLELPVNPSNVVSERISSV

Assay [2] concerns the target 5-hydroxytryptamine receptor 2A (Rattus norvegicus, UniProt P14842).
The target in assay [3] is 5-hydroxytryptamine receptor 2B (Homo sapiens, UniProt P41595).
Chain of 5-hydroxytryptamine receptor 2B (P41595 whole entry): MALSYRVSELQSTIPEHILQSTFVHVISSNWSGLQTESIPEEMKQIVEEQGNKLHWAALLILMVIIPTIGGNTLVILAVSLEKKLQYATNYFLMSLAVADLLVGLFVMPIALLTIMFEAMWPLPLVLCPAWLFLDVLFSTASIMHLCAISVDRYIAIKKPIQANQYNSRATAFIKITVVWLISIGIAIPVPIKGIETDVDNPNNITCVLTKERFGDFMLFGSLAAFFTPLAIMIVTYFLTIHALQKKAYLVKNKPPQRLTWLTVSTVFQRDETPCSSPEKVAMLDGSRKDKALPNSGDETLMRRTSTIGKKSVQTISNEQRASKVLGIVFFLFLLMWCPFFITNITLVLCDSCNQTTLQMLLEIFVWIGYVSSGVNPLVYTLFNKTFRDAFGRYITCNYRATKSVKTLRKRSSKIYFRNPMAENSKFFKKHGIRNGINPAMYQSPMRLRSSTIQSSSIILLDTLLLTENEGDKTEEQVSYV

Chain of 5-hydroxytryptamine receptor 2A (P14842 whole entry): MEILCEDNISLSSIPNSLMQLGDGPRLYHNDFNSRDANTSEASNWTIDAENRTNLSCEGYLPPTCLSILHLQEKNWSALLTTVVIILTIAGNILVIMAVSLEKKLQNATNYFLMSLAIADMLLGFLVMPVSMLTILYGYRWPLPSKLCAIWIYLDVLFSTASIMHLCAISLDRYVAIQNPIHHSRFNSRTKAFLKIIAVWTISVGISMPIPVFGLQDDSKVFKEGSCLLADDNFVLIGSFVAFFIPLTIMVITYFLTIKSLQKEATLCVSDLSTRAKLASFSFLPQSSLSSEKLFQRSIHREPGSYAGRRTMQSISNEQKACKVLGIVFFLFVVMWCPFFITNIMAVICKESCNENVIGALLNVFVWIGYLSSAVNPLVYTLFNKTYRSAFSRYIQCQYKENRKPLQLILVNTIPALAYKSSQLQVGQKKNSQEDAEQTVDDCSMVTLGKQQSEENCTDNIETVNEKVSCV

Broadly, the Ki is a dissociation constant, usually derived from enzyme kinetics or from competition with a known ligand. Lower therefore signals a stronger hold on the target. As to `COc1ccc2[nH]cc(CCNC(C)=O)c2c1`, the Ki in assay [1] and in assay [2] was > 10000 nM throughout.
Take `COc1ccc2cccc(CCNC(C)=O)c2c1` [S 20098]: the Ki in assay [1] was 407 nM; in assay [3], 257 nM; in assay [2], > 10000 nM.
